# Data from patent EP0618222A2, “Dipeptid derivatives of 5-amino-4-hydroxy-hexanoic acid” (CIBA-GEIGY AG, priority 1993, dated 1994).
# Key:
# [1] = test system: HIV-1; experiment: Protection of MT-2 cells against HIV-1 infection (reverse transcriptase activity in supernatant); assay type: cell-based; conditions: Human immunodeficiency virus 1, MT2, 96 h; lowest concentration lowering RT activity by 90 %; MT-2 cells with HIV-1, 4 days incubation; read-out: ED90 (the source's name)
# Text: In einem weiteren Test kann gezeigt werden, dass die Verbindungen der vorliegenden Erfindung Zellen, die normalerweise von HIV infiziert werden, vor einer solchen Infektion schützen oder zumindest eine solche Infektion verlangsamen. Dabei wird die menschliche T-Zell-Leukämie Zellinie MT-2 (Science 229, 563 (1985)), die empfindlich gegen den zytopathogenen Effekt von HIV ist, mit HIV-1 allein oder mit HIV-1 in Gegenwart einer der erfindungsgemässen Verbindungen inkubiert und nach einigen Tagen die Lebensfähigkeit der so behandelten Zellen beurteilt. Hierzu werden die MT-2-Zellen in RPMI 1640-Medium (Gibco, Schweiz; RPMI 1640 enthält ein Aminosäurengemisch ohne L-Gln), das mit 10% hitzeinaktiviertem fetalem Kälberserum, L-Glutamin, Hepes (2-[4-(2-Hydroxyethyl)-1-piperazino]-ethansulfonsäure) und Standardantibiotika supplementiert ist, bei 37 °C in befeuchteter Luft mit 5% CO2 gehalten. 50 µl der jeweiligen Testverbindung in Kulturmedium und 100 µl HIV-1 in Kulturmedium (800 TCID50/ml) (TCID50 = Tissue Culture Infectious Dose 50 = Dosis, die 50% der MT-2-Zellen infiziert) werden zu 4x1 0^3 exponentiell wachsenden MT-2-Zellen in 50 µl Kulturmedium pro Vertiefung auf 96-Loch-Mikrotiterplatten gegeben. Parallele Ansätze auf einerweiteren Mikrotiterplatte mit Zellen und Testverbindung erhalten 100 µl Kulturmedium ohne Virus. […]
# [2] = Blood level in mice after administration (HPLC of blood/plasma); assay type: in vivo, Mäuse; conditions: po; mouse blood, peroral 120 mg/kg, 30 min after administration; read-out: Konzentration
# Procedure: Die pharmakodynamischen Eigenschaften der Verbindungen der Formel können beispielsweise wie folgt belegt werden: • Die zu untersuchenden Verbindungen der Formel oder (beispielsweise als Kontrolle) die entsprechende Verbindung der Formel werden in einem organischen Lösungsmittel, wie Dimethylsulfoxid (DMSO), in einer Konzentration von 240 mg/ml gelöst. Die resultierenden Lösungen werden mit 20% (w/v) Hydroxypropyl-ßcyclodextrin (HPßCD) verdünnt, um eine Konzentration der Testsubstanz von 12 mg/ml zu erhalten. Diese Lösung wird Mäusen oral durch künstliche Sonderernährung in einer Dosis von 120 mg/kg verabreicht. 30, 60, 90 und 120 min nach der Verabreichung werden die Tiere getötet und Blut entnommen. Pro Zeitpunkt werden drei bis vier Tiere untersucht. Das Blut wird heparinisiert und für die Analyse durch eine der folgenden beiden Methoden vorbereitet: Nach der ersten Methode wird Vollblut deproteinisiert durch Mischen eines Volumenteils Blut mit einem Volumenteil Acetonitril; nach Zentrifugation (10 000 g, 5 min) wird der Überstand durch Reversed-Phase-HPLC untersucht. Nach der zweiten Methode werden 2 µl einer 1 mM Lösung eines internen Standards (wie einer anderen Verbindung der Formel I) zu 0,5 ml heparinisiertem Blut zugegeben. Das Blut wird zentrifugiert (10 000 g, 5 min), und das Plasma mit demselben Volumen Acetonitril vermischt. […]
structure (smiles),measurement,setting,value
COc1ccc(C[C@H](C[C@H](O)[C@H](Cc2ccccc2)NC(=O)OC(C)(C)C)C(=O)N[C@H](C(=O)N[C@@H](Cc2ccccc2)C(=O)N2CCOCC2)C(C)C)cc1 [5(S)-(tert-Butoxycarbonylamino)-4(S)-hydroxy-2(R)-(p-methoxy-phenylmethyl)-6-phenyl-hexanoyl-(L)-valyl-(L)-phenyl-alanyl-morpholin-4-ylamid],EC90,[1],0.1 µM
same,concentration at 0.5 h,[2],10.8 µM
